Here are results for two compounds from patent publication US20220193241A1, “AGENT TARGETING DOUBLE-MEMBRANE ORGANELLE DNA” (CHIBA-PREFECTURE, priority 2019, published 2022).

Molecules are shown by their SMILES.

For assay [1], the system named is HDF (human skin fibroblasts). Description: WST cell proliferation assay of library compounds. Format: cell-based. The conditions noted are these: 5 days. From the text: (§1) Compound CCCh560-TPP with a decacyclic structure targeting the A8860G polymorphism of mitochondrial gene ATP6 found in human populations, not acquired mitochondrial mutations in somatic cells, was studied for whether the suppression of cell proliferation was also found by 5-day treatment with the compound for the mitochondrial DNA polymorphism in cancer cell lines C33A, HeLa, Siha, Caski, and ME180 having this polymorphism in homoplasmy and human nontumor skin-derived fibroblast HDF cells. For this purpose, cell proliferation assay was conducted in the same manner as in Example 1. 1000 cells were inoculated to a 96-well plate, and CCCh560-TPP was administered at 0.5, 1, 5, 10, and 20 μM. 5 days later, WST assay was conducted.

The test system of another assay is Siha. Description: WST cell proliferation assay of library compounds. Type of assay: cell-based. Conditions: Homo sapiens, 120 h, 5 days.
Description: as §1

The next assay has as its system Caski. Briefly: WST cell proliferation assay of library compounds. Format: cell-based. Conditions: Homo sapiens, Ca-Ski, 120 h, 5 days.
Description: as §1

In a further assay the test system is ME180. Briefly: WST cell proliferation assay of library compounds. Format: cell-based. The conditions noted are these: Homo sapiens, ME-180, 120 h; ME180, 5 days.
Description: as §1

The next assay deals with HeLa cells. Description: WST cell proliferation assay of library compounds. Format: cell-based. The conditions noted are these: Homo sapiens, 120 h, 5 days. The protocol: (§2) This compound can recognize the T4216C mutation of mitochondrial ND1 gene, and a uterine cervical cancer cell line C33A has this mutation. Cell proliferation assay with wild-type HeLa cells, which is also a uterine cervical cancer cell line, was conducted in the same manner as in Example 1. 1000 cells were inoculated to a 96-well plate, and CCC1283-TPP was administered at 0.5, 1, 5, 10, and 20 μM. 5 days later, WST assay was conducted.
(§3) This compound can recognize the T4216C mutation of mitochondrial ND1 gene, and a uterine cervical cancer cell line C33A has this mutation. Cell proliferation assay with wild-type HeLa cells, which is also a uterine cervical cancer cell line, was conducted in the same manner as in Example 1. 1000 cells were inoculated to a 96-well plate, and CCCh531-TPP was administered at 0.5, 1, 5, 10, and 20 μM. 5 days later, WST assay was conducted.
as §1

The subject of the next assay is C33A. Description: WST cell proliferation assay of library compounds. Type of assay: cell-based. Conditions: Homo sapiens, C-33-A, 120 h, 5 days. As to the method:
as §2, §3, §1

For a further assay, the system named is HeEB1 cells. Briefly: mRNA expression of cell cycle arrest- and apoptosis-related genes by real-time PCR. Format: cell-based, human. The conditions noted are these: 25 μM, 3 days. As to the method: (§4) In order to elucidate the mechanism of the cell proliferation suppressive effect by CCC020-TPP administration, expression analysis at the mRNA level was conducted by real-time PCR. The mtDNA mutation cell line (3243G High) and the normal cell line (HeEB1) were inoculated at 5×10^5 cells/dish and 1×10^5 cells/dish, respectively, to 6 cm dishes (Falcon), cultured for 24 hours, and then treated with CCC020-TPP (final concentration: 25 μM). After further culture for 3 days, RNA was extracted using RNeasy Plus Mini Kit (QIAGEN) according to the instruction manual. The yield of the RNA thus extracted was measured using NANO DROP 2000™ (Thermo Fisher Scientific). The reverse-transcription reaction of RNA was performed with 500 ng of RNA per sample using SuperScript VILO Master Mix (Invitrogen) to synthesize cDNA. The synthesized cDNA was diluted 5-fold with ultrapure water.
(§5) Real-time PCR employed Power SYBR Green Master Mix (Applied Biosystems), and cDNA sample preparation, PCR reaction and analysis were conducted. The primers and reaction conditions used are shown below.
(§6) The PCR reaction conditions were as follows.
A general note: In qPCR the cycle at which signal appears reflects the starting amount.

The subject of assay [2] is 3243G High cells. The assay is described as above. Type of assay: cell-based, human. Conditions: 25 μM, 3 days. The protocol: as §4, §5, §6
For a further assay, the system named is 3243G Low cells. Description: WST assay of cell proliferation with morphological observation. Type of assay: cell-based, human. Conditions: 5 days. The protocol: (§7) The proliferation suppressive effect of CCC020-TPP on cells having the mitochondrial A3243G mutation was evaluated by WST assay. Both a mitochondrial DNA mutated cell line and a normal cell line were inoculated at 1×10^3 cells/well to 96-well plates (Thermo Fisher Scientific), cultured for 24 hours, and then treated with CCC020-TPP (final concentration: 0, 0.1, 1, 10, 20, and 50 μM). The cells were further cultured for 5 days and then morphologically observed under optical microscope IX71 (OLYMPUS, Tokyo, Japan). Then, cell survival rates were calculated using Cell counting kit-8 (DOJINDO, Kumamoto, Japan) according to the instruction manual. DMSO (FUJIFILM Wako Pure Chemical Corp.) (final concentration: 1%) was added as a control to cells.
(§8) IC50 was calculated according to the following expression:
(§9) IC50=10(LOG(A/B)×(50−C)/(D−C)+LOG(B)) • A: higher concentration across the concentration at the cell survival rate of 50% • B: lower concentration across the concentration at the cell survival rate of 50% • C: inhibition rate at the lower concentration across the concentration at the cell survival rate of 50% • D: inhibition rate at the higher concentration across the concentration at the cell survival rate of 50%

For assay [3], the system named is 3243G High cells. Described as above. Type of assay: cell-based, human. Conditions: 5 days. The protocol:
as §7, §8, §9

The subject of the next assay is HeEB1 (HeLamtHeLa) cells. Described as above. Type of assay: cell-based, human. Conditions: 5 days. The protocol: as §7, §8, §9
The subject of assay [4] is 3243G High cells. Briefly: Cell death induction: DAPI nuclear staining and cleaved caspase-3 immunostaining. Format: cell-based, human. Conditions: 25 μM, 5 days. The protocol:
In order to confirm that the suppression of cell proliferation by CCC020-TPP was the induction of cell death, the 3243G High cells were inoculated at 5×10^4 cells/dish to a 35 mm glass base dish (IWAKI), cultured for 24 hours, and then treated with CCC020-TPP (final concentration: 25 μM). The cells thus supplemented with CCC020-TPP were further cultured for 5 days and fixed with 4% PFA/PBS at room temperature for 30 minutes. The cells thus fixed were washed with PBS and blocked with TBST containing 5% normal goat serum for 1 hour. After the completion of blocking, the cells were reacted for 1 hour with a primary antibody diluted with TBST, i.e., a rabbit anti-cleaved caspase-3 antibody (for the cells treated for 5 days: Cell Signaling Technology, Inc.) diluted at 1:200.

The IC50 is the concentration that gives 50% inhibition. A lower IC50 goes with greater potency. With `CN(C)CCCNC(=O)CCNC(=O)c1cc(NC(=O)c2cc(NC(=O)CCNC(=O)c3nc(NC(=O)c4cc(NC(=O)c5nc(NC(=O)CCCNC(=O)c6cc(NC(=O)c7nc(NC(=O)CCNC(=O)c8nc(NC(=O)c9nc(NC(=O)c%10nc(NC(=O)CCNC(=O)CCCC[P+](c%11ccccc%11)(c%11ccccc%11)c%11ccccc%11)cn%10C)cn9C)cn8C)cn7C)cn6C)cn5C)cn4C)cn3C)cn2C)cn1C` [CCCh560-TPP], the “suppression of proliferation (WST)” value in [1] (0.5-20 μM) is given as “tendency to suppress the proliferation”. Moreover, the “IC50 (WST)” value in assay [1] is given as “incalculable”. In addition, the IC50 in the assay on Siha was 12.6 µM; in the assay on Caski, 5.5 µM; with ME180 it was 3.24 µM; in the assay on HeLa cells, 7.75 µM; with C33A it was 1.65 µM.

As for `CN(C)CCCNC(=O)CCNC(=O)c1cc(NC(=O)c2cc(NC(=O)CCNC(=O)c3nc(NC(=O)c4nc(NC(=O)c5nc(NC(=O)CCNC(=O)CCCC[P+](c6ccccc6)(c6ccccc6)c6ccccc6)cn5C)cn4C)cn3C)cn2C)cn1C` [CCC020-TPP], the “expression of P21, BAX and MCL1” value with HeEB1 cells is “no change in expression was found”. For the same compound, the “expression of antiapoptosis-related gene MCL1” value in the assay on 3243G High cells [2] is given as “significantly decreased”. For the same compound, in the assay on 3243G High cells [2], the “expression of cell cycle arrest-related gene P21” value is reported as “significantly increased”. In addition, the “expression of proapoptosis-related gene BAX” value with 3243G High cells [2] is “significantly increased”. Further, the entries for the “suppression of cell proliferation (WST)” value in the assay on 3243G Low cells (0.1-50 μM), in the assay on 3243G High cells [3] (0.1-50 μM) and in the assay with HeEB1 (HeLamtHeLa) cells (0.1-50 μM) were “cell proliferation suppressive effect was markedly found”, “cell proliferation suppressive effect was markedly found” and “cell proliferation was not suppressed”, respectively. For the same compound, the figures for the “cell morphology under optical microscope” value in the assay with 3243G Low cells, in the assay on 3243G High cells [3] and in the assay with HeEB1 (HeLamtHeLa) cells were “no morphological change in cells was found”, “cells that seemed to undergo apoptosis were markedly observed” and “no morphological change in cells was found”, respectively. Further, the “cleaved caspase-3-positive cells (apoptosis)” value in the assay with 3243G High cells [4] is “approximately half”. Further, in the assay with 3243G High cells [4] (DAPI), the “cells with fragmentation of the nucleus” value is on record as “approximately 60%”.
